#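 Protocol summary: plate cells (96-well), add compound at 5 concentrations, incubate 48 h, interpolate endpoints linearly. At the GI50, growth is halved.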 Calls of active or inactive are those of the source. No stated cut-off is given here; in the data, active = GI50 up to about 1.1 µM and inactive = higher.
# Assays:
# Experiment in all cases: inhibition of tumour cell growth, NCI panel, 48 h
# [1] = test system: SN12C
# [2] = test system: U-251
# [3] = test system: NCI-H23
# [4] = test system: BT-549
# [5] = test system: HCC 2998
# [6] = test system: CCRF-CEM
# [7] = test system: MCF7
# [8] = test system: NCI-H460
# [9] = test system: SF-268
# [10] = test system: UACC-62
# [11] = test system: 786-0
# [12] = test system: TK-10
# [13] = test system: SK-MEL-28
# [14] = test system: K562
# [15] = test system: SF-539
# [16] = test system: SK-MEL-2
# [17] = test system: CAKI-1
# [18] = test system: MDA-MB-435
# [19] = test system: NCI-H522
# [20] = test system: HOP-92
# [21] = test system: SW-620
# [22] = test system: A498
# [23] = test system: HCT-15
# [24] = test system: EKVX
# [25] = test system: KM12
# [26] = test system: A549
# [27] = test system: OVCAR-5
# [28] = test system: HCT-116
# [29] = test system: RXF 393
# [30] = test system: MOLT-4
# [31] = test system: SK-MEL-5
# [32] = test system: MDA-N
# [33] = test system: NCI/ADR-RES
# [34] = test system: T47D
# [35] = test system: M14
# [36] = test system: SNB-75
# [37] = test system: SNB-19
# [38] = test system: UO-31
# [39] = test system: SK-OV-3
# [40] = test system: Malme-3M
# [41] = test system: OVCAR-3
# [42] = test system: PC-3
# [43] = test system: HOP-62
# [44] = test system: OVCAR-8
# [45] = test system: COLO 205
# [46] = test system: DU-145
# [47] = test system: UACC-257
# [48] = test system: LOX IMVI
# [49] = test system: HT-29
# [50] = test system: SF-295
# [51] = test system: MDA-MB-231
# [52] = test system: HL-60
# [53] = test system: Hs-578T
# [54] = test system: OVCAR-4
# [55] = test system: ACHN
# [56] = test system: IGROV-1
# [57] = test system: NCI-H226
# [58] = test system: SR
structure (smiles),measurement,setting,value
CC[C@@]12C=CC(=S)N(CCSc3ccccc3)[C@@H]1c1c(n(S(=O)(=O)c3ccc(OC)cc3)c3ccccc13)CC2,GI50,[1],> 100 µM (inactive)
same,GI50,[2],> 100 µM (inactive)
same,GI50,[3],> 100 µM (inactive)
same,GI50,[4],> 100 µM (inactive)
same,GI50,[5],> 100 µM (inactive)
same,GI50,[6],> 100 µM (inactive)
same,GI50,[7],> 100 µM (inactive)
same,GI50,[8],> 100 µM (inactive)
same,GI50,[9],> 100 µM (inactive)
same,GI50,[10],> 100 µM (inactive)
same,GI50,[11],> 100 µM (inactive)
same,GI50,[12],> 100 µM (inactive)
same,GI50,[13],> 100 µM (inactive)
same,GI50,[14],> 100 µM (inactive)
same,GI50,[15],> 100 µM (inactive)
same,GI50,[16],> 100 µM (inactive)
same,GI50,[17],> 100 µM (inactive)
same,GI50,[18],> 100 µM (inactive)
same,GI50,[19],> 100 µM (inactive)
same,GI50,[20],> 100 µM (inactive)
same,GI50,[21],> 100 µM (inactive)
same,GI50,[22],> 100 µM (inactive)
same,GI50,[23],> 100 µM
same,GI50,[24],> 100 µM (inactive)
same,GI50,[25],> 100 µM (inactive)
same,GI50,[26],> 100 µM (inactive)
same,GI50,[27],> 100 µM (inactive)
same,GI50,[28],> 100 µM (inactive)
same,GI50,[29],16.6 µM (inactive)
same,GI50,[30],> 100 µM (inactive)
same,GI50,[31],> 100 µM (inactive)
same,GI50,[32],> 100 µM (inactive)
same,GI50,[33],> 100 µM (inactive)
same,GI50,[34],> 100 µM (inactive)
same,GI50,[35],> 100 µM (inactive)
same,GI50,[36],> 100 µM (inactive)
same,GI50,[37],> 100 µM (inactive)
same,GI50,[38],> 100 µM (inactive)
same,GI50,[39],> 100 µM (inactive)
same,GI50,[40],> 100 µM (inactive)
same,GI50,[41],> 100 µM (inactive)
same,GI50,[42],> 100 µM (inactive)
same,GI50,[43],> 100 µM (inactive)
same,GI50,[44],> 100 µM (inactive)
same,GI50,[45],> 100 µM (inactive)
same,GI50,[46],> 100 µM (inactive)
same,GI50,[47],> 100 µM (inactive)
same,GI50,[48],> 100 µM (inactive)
same,GI50,[49],> 100 µM (inactive)
same,GI50,[50],> 100 µM (inactive)
same,GI50,[51],> 100 µM (inactive)
same,GI50,[52],> 100 µM (inactive)
same,GI50,[53],> 100 µM (inactive)
Cc1cc(-c2nc3ccccc3s2)ccc1NC(=O)[C@@H](N)CCCCN,GI50,[1],16.8 µM (inactive)
same,GI50,[2],4.59 µM (inactive)
same,GI50,[3],6.7 µM (inactive)
same,GI50,[4],10.1 µM (inactive)
same,GI50,[5],6.31 µM (inactive)
same,GI50,[6],6.92 µM (inactive)
same,GI50,[7],< 0.0301 µM (active)
same,GI50,[8],2.22 µM (inactive)
same,GI50,[9],6.07 µM (inactive)
same,GI50,[10],13.8 µM (inactive)
same,GI50,[11],5.96 µM (inactive)
same,GI50,[12],0.993 µM (active)
same,GI50,[13],15.3 µM (inactive)
same,GI50,[54],5.87 µM (inactive)
same,GI50,[14],7.01 µM (inactive)
same,GI50,[55],14.7 µM (inactive)
same,GI50,[16],13.4 µM (inactive)
same,GI50,[17],7.5 µM (inactive)
same,GI50,[18],5.24 µM (inactive)
same,GI50,[19],6.75 µM (inactive)
same,GI50,[20],16.1 µM (inactive)
same,GI50,[21],12.7 µM (inactive)
same,GI50,[56],1.69 µM (inactive)
same,GI50,[22],3.83 µM (inactive)
same,GI50,[23],9.27 µM
same,GI50,[57],2.24 µM (inactive)
same,GI50,[24],12.2 µM (inactive)
same,GI50,[25],2.82 µM (inactive)
same,GI50,[26],6.14 µM (inactive)
same,GI50,[27],12.5 µM (inactive)
same,GI50,[28],6.22 µM (inactive)
same,GI50,[29],3.89 µM (inactive)
same,GI50,[30],6.58 µM (inactive)
same,GI50,[31],13.9 µM (inactive)
same,GI50,[32],5.04 µM (inactive)
same,GI50,[33],15.8 µM (inactive)
same,GI50,[34],< 0.0247 µM (active)
same,GI50,[35],2.47 µM (inactive)
same,GI50,[36],3.68 µM (inactive)
same,GI50,[37],12 µM (inactive)
same,GI50,[38],6.71 µM (inactive)
same,GI50,[39],13.5 µM (inactive)
same,GI50,[40],18.2 µM (inactive)
same,GI50,[41],12.9 µM (inactive)
same,GI50,[42],14.3 µM (inactive)
same,GI50,[58],3.24 µM (inactive)
same,GI50,[43],11.8 µM (inactive)
same,GI50,[44],6.78 µM (inactive)
same,GI50,[45],12.4 µM (inactive)
same,GI50,[46],12.5 µM (inactive)
same,GI50,[47],18.4 µM (inactive)
same,GI50,[48],2.03 µM (inactive)
same,GI50,[49],7.16 µM (inactive)
same,GI50,[50],5.07 µM (inactive)
same,GI50,[51],9.04 µM (inactive)
same,GI50,[53],18.5 µM (inactive)
